Results published in paper PMC7914897, “Cytotoxic Potential of a-Azepano- and 3-Amino-3,4-SeCo-Triterpenoids” (International Journal of Molecular Sciences, 2021).

Assays:
Ovarian Cancer subpanel = assay: NCI-60 screen, subpanel; conditions: Homo sapiens
Renal Cancer subpanel = assay: NCI-60 screen, subpanel; conditions: Homo sapiens
Prostate cancer subpanel = assay: NCI-60 screen, subpanel; conditions: Homo sapiens
K-562 (Leukemia) = assay: NCI-60 screen (SRB, 48 h); conditions: Homo sapiens
[1] = system: A549/ATCC (NSC lung cancer); assay: NCI-60 screen (SRB, 48 h); conditions: Homo sapiens
EKVX (NSC lung cancer) = assay: NCI-60 screen (SRB, 48 h); conditions: Homo sapiens
HOP-62 (NSC lung cancer) = assay: NCI-60 screen (SRB, 48 h); conditions: Homo sapiens
HOP-92 (NSC lung cancer) = assay: NCI-60 screen (SRB, 48 h); conditions: Homo sapiens
[2] = system: NCI-H23 (NSC lung cancer); assay: NCI-60 screen (SRB, 48 h); conditions: Homo sapiens
COLO 205 (Colon cancer) = assay: NCI-60 screen (SRB, 48 h); conditions: Homo sapiens
HCT-15 (Colon cancer) = assay: NCI-60 screen (SRB, 48 h); conditions: Homo sapiens
SW-620 (Colon cancer) = assay: NCI-60 screen (SRB, 48 h); conditions: Homo sapiens
SF-295 (CNS cancer) = assay: NCI-60 screen (SRB, 48 h); conditions: Homo sapiens
SNB-19 (CNS cancer) = assay: NCI-60 screen (SRB, 48 h); conditions: Homo sapiens
MALME-3M (Melanoma) = assay: NCI-60 screen (SRB, 48 h); conditions: Homo sapiens
M14 (Melanoma) = assay: NCI-60 screen (SRB, 48 h); conditions: Homo sapiens
SK-MEL-2 (Melanoma) = assay: NCI-60 screen (SRB, 48 h); conditions: Homo sapiens
SK-MEL-28 (Melanoma) = assay: NCI-60 screen (SRB, 48 h)
UACC-62 (Melanoma) = assay: NCI-60 screen (SRB, 48 h); conditions: Homo sapiens
OVCAR-8 (Ovarian cancer) = assay: NCI-60 screen (SRB, 48 h); conditions: Homo sapiens
[3] = system: NCI/ADR-RES (Ovarian cancer); assay: NCI-60 screen (SRB, 48 h); conditions: Homo sapiens
ACHN (Renal cancer) = assay: NCI-60 screen (SRB, 48 h); conditions: Homo sapiens
SN12C (Renal cancer) = assay: NCI-60 screen (SRB, 48 h); conditions: Homo sapiens
UO-31 (Renal cancer) = assay: NCI-60 screen (SRB, 48 h); conditions: Homo sapiens
DU-145 (Prostate cancer) = assay: NCI-60 screen (SRB, 48 h); conditions: Homo sapiens
MCF7 (Breast cancer) = assay: NCI-60 screen (SRB, 48 h); conditions: Homo sapiens
HS 578T (Breast cancer) = assay: NCI-60 screen (SRB, 48 h); conditions: Homo sapiens
T-47D (Breast cancer) = assay: NCI-60 screen (SRB, 48 h); conditions: Homo sapiens, T47D

C[C@H]1[C@H](C)CC[C@]2(CO)CC[C@]3(C)C(=CC[C@@H]4[C@@]5(C)CCCNC(C)(C)[C@@H]5CC[C@]43C)[C@H]12 [Compound 4, azepanouvaol]
IC (TGI) (Ovarian Cancer subpanel; 48 h, read-out: TGI MG_MID): 3.59 µM | GI50 (Ovarian Cancer subpanel; read-out: GI50 MG_MID): 1.91 µM | CC50 (Ovarian Cancer subpanel; read-out: LC50 MG_MID): 11.4 µM | IC (TGI) (Renal Cancer subpanel; 48 h, read-out: TGI MG_MID): 3.2 µM | GI50 (Renal Cancer subpanel; read-out: GI50 MG_MID): 1.47 µM | CC50 (Renal Cancer subpanel; read-out: LC50 MG_MID): 6.11 µM | IC (TGI) (Prostate cancer subpanel; 48 h, read-out: TGI MG_MID): 3.06 µM | GI50 (Prostate cancer subpanel; read-out: GI50 MG_MID): 1.64 µM | CC50 (Prostate cancer subpanel; read-out: LC50 MG_MID): 5.7 µM | GI50 (K-562 (Leukemia); K562): 0.47 µM | IC (TGI) (K-562 (Leukemia); K562, 48 h, read-out: TGI): 2.02 µM | CC50 (K-562 (Leukemia); K562, read-out: LC50): 6.68 µM | GI50 ([1]; A549): 1.74 µM | IC (TGI) ([1]; A549, 48 h, read-out: TGI): 3.28 µM | CC50 ([1]; A549, read-out: LC50): 6.16 µM | GI50 (EKVX (NSC lung cancer)): 1.66 µM | IC (TGI) (EKVX (NSC lung cancer); 48 h, read-out: TGI): 3.29 µM | CC50 (EKVX (NSC lung cancer); read-out: LC50): 6.53 µM | GI50 (HOP-62 (NSC lung cancer); HOP-62): 1.81 µM | IC (TGI) (HOP-62 (NSC lung cancer); HOP-62, 48 h, read-out: TGI): 3.49 µM | CC50 (HOP-62 (NSC lung cancer); HOP-62, read-out: LC50): 6.52 µM | GI50 (HOP-92 (NSC lung cancer); HOP-92): 1.52 µM | IC (TGI) (HOP-92 (NSC lung cancer); HOP-92, 48 h, read-out: TGI): 3.19 µM | CC50 (HOP-92 (NSC lung cancer); HOP-92, read-out: LC50): 6.67 µM | GI50 ([2]; NCI-H23): 1.65 µM | IC (TGI) ([2]; NCI-H23, 48 h, read-out: TGI): 3.26 µM | CC50 ([2]; NCI-H23, read-out: LC50): 6.47 µM | GI50 (COLO 205 (Colon cancer); COLO 205): 1.74 µM | IC (TGI) (COLO 205 (Colon cancer); COLO 205, 48 h, read-out: TGI): 3.46 µM | CC50 (COLO 205 (Colon cancer); COLO 205, read-out: LC50): 6.86 µM | GI50 (HCT-15 (Colon cancer); HCT-15): 1.39 µM | IC (TGI) (HCT-15 (Colon cancer); HCT-15, 48 h, read-out: TGI): 2.75 µM | CC50 (HCT-15 (Colon cancer); HCT-15, read-out: LC50): 5.52 µM | GI50 (SW-620 (Colon cancer); SW-620): 1.79 µM | IC (TGI) (SW-620 (Colon cancer); SW-620, 48 h, read-out: TGI): 3.54 µM | CC50 (SW-620 (Colon cancer); SW-620, read-out: LC50): 7.03 µM | GI50 (SF-295 (CNS cancer); SF-295): 1.64 µM | IC (TGI) (SF-295 (CNS cancer); SF-295, 48 h, read-out: TGI): 3.06 µM | CC50 (SF-295 (CNS cancer); SF-295, read-out: LC50): 5.72 µM | GI50 (SNB-19 (CNS cancer); SNB-19): 1.86 µM | IC (TGI) (SNB-19 (CNS cancer); SNB-19, 48 h, read-out: TGI): 3.43 µM | CC50 (SNB-19 (CNS cancer); SNB-19, read-out: LC50): 6.31 µM | GI50 (MALME-3M (Melanoma)): 1.68 µM | IC (TGI) (MALME-3M (Melanoma); 48 h, read-out: TGI): 3.44 µM | CC50 (MALME-3M (Melanoma); read-out: LC50): 7.08 µM | GI50 (M14 (Melanoma); M14): 1.61 µM | IC (TGI) (M14 (Melanoma); M14, 48 h, read-out: TGI): 3.12 µM | CC50 (M14 (Melanoma); M14, read-out: LC50): 6.04 µM | GI50 (SK-MEL-2 (Melanoma); SK-MEL-2): 1.9 µM | IC (TGI) (SK-MEL-2 (Melanoma); SK-MEL-2, 48 h, read-out: TGI): 3.63 µM | CC50 (SK-MEL-2 (Melanoma); SK-MEL-2, read-out: LC50): 6.91 µM | GI50 (SK-MEL-28 (Melanoma); Homo sapiens, SK-MEL-28): 1.75 µM | IC (TGI) (SK-MEL-28 (Melanoma); Homo sapiens, SK-MEL-28, 48 h, read-out: TGI): 3.3 µM | CC50 (SK-MEL-28 (Melanoma); Homo sapiens, SK-MEL-28, read-out: LC50): 6.22 µM | Growth % of the Most Sensitive Cell Lines (SK-MEL-28 (Melanoma); SK-MEL-28, 1 dose 10 µM): −84.86% | GI50 (UACC-62 (Melanoma); UACC-62): 1.85 µM | IC (TGI) (UACC-62 (Melanoma); UACC-62, 48 h, read-out: TGI): 3.35 µM | CC50 (UACC-62 (Melanoma); UACC-62, read-out: LC50): 6.06 µM | GI50 (OVCAR-8 (Ovarian cancer); OVCAR-8): 1.96 µM | IC (TGI) (OVCAR-8 (Ovarian cancer); OVCAR-8, 48 h, read-out: TGI): 3.61 µM | CC50 (OVCAR-8 (Ovarian cancer); OVCAR-8, read-out: LC50): 6.67 µM | GI50 [3]: 1.76 µM | IC (TGI) ([3]; 48 h, read-out: TGI): 3.47 µM | CC50 ([3]; read-out: LC50): 6.84 µM | GI50 (ACHN (Renal cancer)): 1.69 µM | IC (TGI) (ACHN (Renal cancer); 48 h, read-out: TGI): 3.06 µM | CC50 (ACHN (Renal cancer); read-out: LC50): 5.54 µM | GI50 (SN12C (Renal cancer)): 1.64 µM | IC (TGI) (SN12C (Renal cancer); 48 h, read-out: TGI): 3.11 µM | CC50 (SN12C (Renal cancer); read-out: LC50): 5.87 µM | GI50 (UO-31 (Renal cancer); UO-31): 1.54 µM | IC (TGI) (UO-31 (Renal cancer); UO-31, 48 h, read-out: TGI): 2.99 µM | CC50 (UO-31 (Renal cancer); UO-31, read-out: LC50): 5.79 µM | GI50 (DU-145 (Prostate cancer); DU-145): 1.72 µM | IC (TGI) (DU-145 (Prostate cancer); DU-145, 48 h, read-out: TGI): 3.14 µM | CC50 (DU-145 (Prostate cancer); DU-145, read-out: LC50): 5.75 µM | GI50 (MCF7 (Breast cancer); MCF7): 1.58 µM | IC (TGI) (MCF7 (Breast cancer); MCF7, 48 h, read-out: TGI): 3.39 µM | CC50 (MCF7 (Breast cancer); MCF7, read-out: LC50): 7.28 µM | GI50 (HS 578T (Breast cancer)): 2.05 µM | IC (TGI) (HS 578T (Breast cancer); 48 h, read-out: TGI): 4.86 µM | CC50 (HS 578T (Breast cancer); read-out: LC50): 32.6 µM | GI50 (T-47D (Breast cancer)): 1.68 µM | IC (TGI) (T-47D (Breast cancer); 48 h, read-out: TGI): 4.03 µM | CC50 (T-47D (Breast cancer); read-out: LC50): 9.66 µM
